Patent US20200368364A1, “CYSTEINE PEPTIDE-ENABLED ANTIBODIES” (City of Hope, priority 2016, published 2020)

Columns and labels:
SKBR3 cells = test: Cell viability (CellTiter-Glo) for DM1 and MMAE conjugates; type: cell-based; conditions: 72 h, read-out: EC50 (cell viability / lysis)
[1] = system: mutated I83 trastuzumab memAb (I83 mutated to glutamate); test: SPR of meditope peptide variants binding to immobilized memAb variant; conditions: SPR at 37° C.; original meditope; vs original trastuzumab memAb
Experimental: FIG. 3A-3H. […] FIG. 3E-H) SPR sensograms collected at 37° C.

[2] = system: cetuximab or the meditope-enabled trastuzumab; test: Lifetime of the meditope-Fab interaction; type: binding; conditions: 37° C.
Excerpt: Since the cyclic, twelve residue peptide binds in a hole that runs through the middle of the Fab arm, Applicants have named it a meditope. Antigen binding is not altered after grafting or in the presence of the meditope^14-15. As such, Applicants understood that they could use the meditope interaction as a hitch for the delivery of cytotoxins, imaging agents, or biologics. […] Applicants further improved the lifetime by creating a mechanical bond by modifying the arginine at position 8 with an azide, threading it through the Fab hole, and using click chemistry to sterically block its dissociation. While the lifetime of this mechanically interlocked Fab complex is difficult to ascertain, Applicants were capable of imaging tumors in animal xenografts.

Substance	EC50 (SKBR3 cells) [nM]	increase in affinity with I83 mutated to glutamate [1]	lifetime of the meditope peptide on the Fab [2]
trastuzumab emtansine [clinical DM1]	0.093		
Ac-CQFDLSTRRLKC-Am (Ac-CQFDLSTRRLKC-NH2; not fully specified (bridges); printed as Ac-CQFDLSTRRLKC-Am; also: cyclic, kind not given here) [original meditope, serine at position 6]		~25	seconds
